{
  "source": "patent US20140038920A1",
  "about": "“TFEB PHOSPHORYLATION INHIBITORS AND USES THEREOF” (FONDAZIONE TELETHON, priority 2011, published 2014)",
  "data": [
    {"test_system": "TFEB", "experiment": "High content TFEB-GFP nuclear translocation assay", "type": "cell-based", "settings": "Homo sapiens; mobilization of cytosolic TFEB to the nucleus; TFEB-GFP HeLa cells, 3 h at 37° C. in RPMI, ten concentrations 50 μM to 2.54 nM, 4 runs; read-out: Average EC50", "procedure": "Immunoblotting of protein extracts isolated from HeLa cells treated overnight, as indicated. Membranes were probed with antibodies for p-T202/Y204-ERK1/2, ERK1/2, p-T389-S6K, and S6K to measure ERK and mTORC1 activities. […] FLAG immunoblotting of cytosolic and nuclear fractions isolated from TFEB-3×FLAG HeLa cells cultured in amino acid-free media and subsequently stimulated as indicated for at least 3 h. Correct subcellular fractionation was verified with H3 and tubulin antibodies. […] After 3 h at 37° C. in RPMI medium containing one of each of the compounds, the cells were washed, fixed, and stained with DAPI and photographed by using confocal automated microscopy (Opera high content system, Perkin Elmer). […] Scale bars represent 30 μm. […] The EC50 for each compound was calculated using Prism software (see Materials and Methods for details). […] Antibody used were p-T389-S6K, S6K and FLAG. […] HeLa cells stably expressing Flag-3×TFEB were infected with lentiviruses encoding a Short hairpin (Sh-) RNA targeting luciferase (control) or RagC and RagD mRNAs. […] TFEB localization was detected with a FLAG antibody, whereas tubulin and H3 were used as controls for the cytosolic and nuclear fraction, respectively; levels of S6K phosphorylation were used to test RagC and RagD knockdown efficiency.\nAfter 3 hours at 37° C. in RPMI medium cells were washed, fixed, and stained with DAPI. For the acquisition of the images, ten pictures per each well of the 384-well plate were taken by using confocal automated microscopy (Opera high content system, Perkin Elmer). A dedicated script was developed to perform the analysis of TFEB localization on the different images (Acapella software, Perkin Elmer). The script calculates the ratio value resulting from the average intensity of nuclear TFEB-GFP fluorescence divided by the average of the cytosolic intensity of TFEB-GFP fluorescence. The results were normalized using negative (RPMI medium) and positive (HBSS starvation) control samples in the same plate. The data are represented by the percentage of nuclear translocation at the different concentrations of each compound using Prism software (GraphPad software). The EC50 for each compound was calculated using non-linear regression fitting (Prism software).\nIn order to find additional small molecules able to induce the translocation of TFEB from the cytosol to the nucleus, the applicants developed a cell-based high content assay using stable HeLa cells overexpressing TFEB fused to the green fluorescent protein (TFEB-GFP). In the assay imaging of treated cells is acquired by an automated confocal microscope (OPERA system) and the analysis of those images with Acapella image software calculates the ratio of the average of fluorescence intensity of TFEB-GFP between the cytosol and nucleus of the cell (see Materials and methods for details). […] They tested ten concentrations for each inhibitor.", "units": {"EC50": "µM"}, "values": [
      {"smiles": "CO[C@H]1C[C@@H]2CC[C@@H](C)[C@@](O)(O2)C(=O)C(=O)N2CCCC[C@H]2C(=O)O[C@H]([C@H](C)C[C@@H]2CC[C@@H](OC(=O)C(C)(CO)CO)[C@H](OC)C2)CC(=O)[C@H](C)/C=C(\\C)[C@@H](O)[C@@H](OC)C(=O)[C@H](C)C[C@H](C)/C=C/C=C/C=C/1C", "note": "[Temsirolimus]", "EC50": "7 to 15"},
      {"smiles": "Cc1cc(Nc2cc(CN3CCOCC3)c3nc(C)c(Cc4ccc(Cl)cc4F)n3n2)[nH]n1", "note": "[LY2784544]", "EC50": "< 7"},
      {"smiles": "CO[C@H]1C[C@@H]2CC[C@@H](C)[C@@](O)(O2)C(=O)C(=O)N2CCCC[C@H]2C(=O)O[C@H]([C@H](C)C[C@@H]2CC[C@@H](OCCO)[C@H](OC)C2)CC(=O)[C@H](C)/C=C(\\C)[C@@H](O)[C@@H](OC)C(=O)[C@H](C)C[C@H](C)/C=C/C=C/C=C/1C", "note": "[Everolimus (RAD001), Everolimus]", "EC50": "> 15"},
      {"smiles": "COC(=O)Nc1ccc(-c2nc(N3CCOCC3)c3cnn(C4CCN(C(=O)OC)CC4)c3n2)cc1", "note": "[WYE354]", "EC50": "7 to 15"},
      {"smiles": "CO[C@H]1C[C@@H]2CC[C@@H](C)[C@@](O)(O2)C(=O)C(=O)N2CCCC[C@H]2C(=O)O[C@H]([C@H](C)C[C@@H]2CC[C@@H](OP(C)(C)=O)[C@H](OC)C2)CC(=O)[C@H](C)/C=C(\\C)[C@@H](O)[C@@H](OC)C(=O)[C@H](C)C[C@H](C)/C=C/C=C/C=C/1C", "note": "[Deforolimus]", "EC50": "7 to 15"},
      {"smiles": "Cc1ccc(C(=O)Nc2ccc(CN3CCN(C)CC3)c(C(F)(F)F)c2)cc1C#Cc1cnc2cccnn12", "note": "[AP24534]", "EC50": "< 7"},
      {"smiles": "C=CC(=O)Nc1cccc(Oc2nc(Nc3ccc(N4CCN(C)CC4)cc3OC)ncc2Cl)c1", "note": "[WZ4002]", "EC50": "7 to 15"},
      {"smiles": "CN(C)C/C=C/C(=O)Nc1cc2c(Nc3ccc(F)c(Cl)c3)ncnc2cc1O[C@H]1CCOC1", "note": "[BIBW2992 (Tovok)]", "EC50": "< 7"},
      {"smiles": "NC1(c2ccc(-c3nc4ccn5c(=O)[nH]nc5c4cc3-c3ccccc3)cc2)CCC1", "note": "[MK-2206]", "EC50": "7 to 15"},
      {"smiles": "Nc1nccc(Oc2ccc(NC(=O)c3c[nH]cc(-c4ccc(F)cc4)c3=O)cc2F)c1Cl", "note": "[BMS 794833]", "EC50": "7 to 15"},
      {"smiles": "CN1CCN(CCOc2cc(OC3CCOCC3)c3c(Nc4c(Cl)ccc5c4OCO5)ncnc3c2)CC1", "note": "[AZD0530 (Saracatinib), Saracatinib]", "EC50": "7 to 15"},
      {"smiles": "CC[C@@H]1C(=O)N(C)c2cnc(Nc3ccc(C(=O)NC4CCN(C)CC4)cc3OC)nc2N1C1CCCC1", "note": "[BI2536]", "EC50": "< 7"},
      {"smiles": "O=C(NOC[C@H](O)CO)c1ccc(F)c(F)c1Nc1ccc(I)cc1F", "note": "[PD0325901]", "EC50": "> 15"},
      {"smiles": "Cc1cc(C(C)Nc2ccccc2)c2nc(N3CCOCC3)cc(=O)n2c1", "note": "(stereo not shown) [TGX 221]", "EC50": "< 7"},
      {"smiles": "CS(=O)(=O)CCNCc1ccc(-c2ccc3ncnc(Nc4ccc(OCc5cccc(F)c5)c(Cl)c4)c3c2)o1", "note": "[Lapatinib Ditosylate]", "EC50": "< 7"},
      {"smiles": "C=CC(=O)Nc1cc2c(Nc3ccc(F)c(Cl)c3)ncnc2cc1OCCCN1CCOCC1", "note": "[CI-1033]", "EC50": "< 7"},
      {"smiles": "COc1cc(N2CCC(N3CCN(C)CC3)CC2)ccc1Nc1ncc(Cl)c(Nc2ccccc2S(=O)(=O)C(C)C)n1", "note": "[NVP-TAE684]", "EC50": "< 7"},
      {"smiles": "CN(C)c1ccc(-c2nc3c(N4CCN(CC(=O)Nc5nccs5)CC4)c(Cl)cnc3[nH]2)cc1", "note": "[CCT129202]", "EC50": "< 7"},
      {"smiles": "Cc1cc(Nc2cc(N3CCN(C)CC3)nc(/C=C/c3ccccc3)n2)n[nH]1", "note": "[ENMD-2076]", "EC50": "< 7"},
      {"smiles": "Cn1cc(C2=C(c3cn(C4CCN(Cc5ccccn5)CC4)c4ccccc34)C(=O)NC2=O)c2ccccc21", "note": "[Enzastaurin]", "EC50": "< 7"},
      {"smiles": "Clc1ccc(C2(c3ccc(-c4cn[nH]c4)cc3)CCNCC2)cc1", "note": "[AT7867]", "EC50": "< 7"},
      {"smiles": "Cc1ccc([N+](=O)[O-])cc1S(=O)(=O)N(C)/N=C/c1cnc2ccc(Br)cn12", "note": "[PIK75]", "EC50": "< 7"},
      {"smiles": "Cc1nc(N)sc1-c1ccnc(Nc2ccc(N3CCOCC3)cc2)n1", "note": "[CYC116]", "EC50": "< 7"},
      {"smiles": "CCC1=C[C@@H]2CN(C1)Cc1c([nH]c3ccccc13)[C@@](C(=O)OC)(c1cc3c(cc1OC)N(C)[C@H]1[C@@](O)(C(=O)OC)[C@H](OC(C)=O)[C@]4(CC)C=CCN5CC[C@]31[C@@H]54)C2", "note": "[Vinorelbine]", "EC50": "< 7"},
      {"smiles": "CCN(CC)CCNC(=O)c1c(C)[nH]c(/C=C2\\C(=O)Nc3ccc(F)cc32)c1C", "note": "[Sunitinib Malate]", "EC50": "< 7"}
    ]}
  ]
}
